{"source": "ChEMBL document CHEMBL1156393", "about": "“Pibocin B, the first N-O-methylindole marine alkaloid, a metabolite from the Far-Eastern ascidian Eudistoma species” (2001)", "assay": "Cytotoxicity against mouse EAC cells", "type": "functional", "conditions": "Ehrlich, read-out: ED50 (the source's name)", "data": [{"smiles": "COn1c(Br)c2c3c(cccc31)[C@H]1C[C@@H](C)CN(C)[C@@H]1C2", "note": "[PIBOCIN B]", "values": [{"measurement": "EC50", "value": 25, "unit": "µg/mL"}]}]}
